From a melting point compilation (Tetko et al.; mined from patent text by program, amines drawn as free bases though some values may be those of a salt)

`CCCCCCCCCCCCCCCCCCOCCSCCO` gave a melting point of 58 to 59 °C. Work on `CC(C)CCNCC(O)C(CC(C)C)NC(=O)C(Cc1c[nH]cn1)NC(=O)C(CC(=O)NCCc1ccccc1)Cc1cccc2ccccc12` (mixture of isomers) yielded a melting point of 92 to 97 °C. Work on `CON(C)C(=O)c1cc2sc(C)c(N(C)S(=O)(=O)c3cccs3)c2[nH]1` yielded a melting point of 187 °C. `O=C(Cc1ccccc1O)N1CCOCC1` showed a melting point of 122 °C. For `Cc1ccccc1NC(=O)CN1C(=O)c2ccccc2C1=O`, the melting point was 254 °C. Work on `COc1ccccc1N1CCN(CCOc2ccc(-c3cn4cccnc4n3)cc2)CC1` yielded a melting point of 150 to 152 °C. In the case of `CC(=O)NC1Cc2ccc(NC(=O)c3ccccc3Br)cc2C1` (stereo unspecified), the melting point is reported as 216 to 217 °C. Work on `CCCCN1CCC(CNC(=O)c2ccc(N)n3cc(CCC)nc23)CC1` yielded a melting point of 172 °C. `NS(=O)(=O)c1cc2c(s1)S(=O)(=O)CC(Br)C2O` (stereo unspecified) gave a melting point of 217 to 219 °C. With `O=C1C2CCCCC2C(=O)N1c1ccc(F)cc1F` (stereo unspecified) the melting point was 117 to 123 °C. Compound `Cc1ccc(-c2nc3cc([N+](=O)[O-])ccc3o2)o1` has a melting point of 182 to 184 °C. With `O=C(O)Cc1ccc(Cn2nc(-c3ccccc3)c(Cc3cc4c(cc3Cl)OCO4)c2C(=O)O)cc1` the melting point was less than 45 °C. Compound `CCOC(=O)c1ccc(N=C(Nc2ccc(C(=O)OCC)cc2)c2ccc(C#N)cc2)cc1` has a melting point of 205 to 213 °C. For `CC(C)Cc1ccc(CCc2cc3c(s2)NC(=O)CN=C3c2ccccc2Cl)cc1`, the melting point was 179 to 181 °C. `CCCCNc1ncc(C(=O)c2ccc(Cl)c([N+](=O)[O-])c2)s1` showed a melting point of 192 to 194 °C. Compound `O=c1[nH]c2ccccc2c(-c2ccccc2)c1-c1csc(-c2ccncc2)n1` has a melting point greater than 250 °C. In the case of `CCCc1c(OC(=S)N(C)C)ccc2c(=O)cc(C(=O)OCC)oc12`, the melting point is reported as 132 to 134 °C. Compound `CN1CCN(c2cc3ccccc3c(=O)[nH]2)CC1CO` (stereo unspecified) has a melting point of 173 to 174 °C. With `COC(=O)c1cccc(-c2ccccc2OC)c1` the melting point was 92 to 93 °C. For `CCOC(=O)Cn1c2ccc(Cl)ccc-2c(C(C)=O)c1=O`, the melting point was 184 °C. `CCOC(=O)CN(c1ccccc1)[C@H]1c2cc(C#N)ccc2OC(C)(C)[C@@H]1O` showed a melting point of 182 to 183 °C. `Cc1oc2ccccc2c1C(=O)NCc1ccc2c(Br)c(OCC#N)ccc2c1` showed a melting point of 180 to 182 °C. For `CC(=O)c1ccc2c(c1)Sc1cc(C(C)=O)c(Cl)cc1N2C`, the melting point was 185 °C. Compound `CCC(Oc1ccc2ccccc2c1)C(=O)OC1CC(O)C=C2C=CC(C)C(CCC3CC(O)CC(=O)O3)C21` (mixture of isomers) has a melting point of 124 to 127 °C. Compound `CN(c1cccc(C(=O)O)c1)c1ccc(-c2ccc(C(=N)N)cc2)nn1` has a melting point greater than 260 °C. Compound `CCn1nc(C(N)=O)cc1CC(C)(C)NC(=O)OC(C)(C)C` has a melting point of 178 to 180 °C. Compound `COC=C(C(=O)OC)c1csc2ccc(C=O)cc12` has a melting point of 134 to 135 °C. `CCOC(=O)C(C)=NN(C)c1ccc(C(F)(F)F)cc1` showed a melting point of 71 to 72 °C. Work on `O=C1c2cc(-c3ccccc3)ccc2-c2c1c1ccc([N+](=O)[O-])cc1c(=O)n2CCCNS(=O)(=O)c1ccccc1` yielded a melting point of 246 to 247 °C. With `N#Cc1cccc(-c2ccc(C#N)c(Cn3cncn3)c2)c1` the melting point was 160 to 161 °C. `Cc1ccc(S(=O)(=O)NCC[C@@H](NS(=O)(=O)c2ccc(C)cc2)C(=O)NO)cc1` gave a melting point of 152 to 153 °C. `O=C1Nc2ccncc2C(=O)C1c1c(F)cccc1Cl` (stereo unspecified) gave a melting point of 249 °C. For `Clc1ccc(C=C(OC2CCCCC2)n2cncn2)c(Cl)c1`, the melting point was 84 °C. For `COc1nc2c(cc1NC(=S)N1CCN(c3cc(C)cc(C)c3)CC1)CCC2`, the melting point was 159 to 161 °C. `CCCN(CCC)C(=O)n1cnc(S(C)(=O)=O)n1` gave a melting point of 94 °C. With `CCOC(=O)CCc1cccc(CNC(=O)C[C@H]2O[C@H](c3cccc(OC)c3OC)c3cc(Cl)ccc3N(CC(C)(C)CO)C2=O)c1` the melting point was 94 to 95 °C. Compound `COc1ccc(C2(C#N)CCC(=O)CC2)cc1` has a melting point of 77.5 to 79.5 °C. In the case of `COc1ccc(-n2c(=O)c(C(=O)Cl)nc3c(Cl)cccc32)cc1`, the melting point is reported as 131 to 134 °C. Compound `CCNC(=O)c1cc(N)c(N)cc1OC` has a melting point of 65 to 67 °C. For `O=C(OC1CCCCC1)c1ncn2c1[C@@H]1CCCN1C(=O)c1c(Br)cccc1-2`, the melting point was 167 to 168 °C. `NC(=O)c1ncn2c1[C@@H]1CCN1C(=O)c1ccccc1-2` gave a melting point of 228 to 230 °C. `CCCOc1c(OC)cc(Cl)c2c1CN1CCc3cc(OC)c(OCc4ccccc4)cc3C1C2` (stereo unspecified) showed a melting point of 118 to 120 °C. `C=C1CCC2C3CC=C4C=C(OC)CCC4(C)C3CCC12C` (stereo unspecified) gave a melting point of 97 to 99 °C. `OCc1cccc2c(Br)c3ccccc3cc12` gave a melting point of 125 to 127 °C. Work on `CC(=O)N1CCN(c2ccc(O)cc2Br)CC1` yielded a melting point of 212 to 214 °C. With `Cc1nc(-c2ccc([N+](=O)[O-])cc2)c[nH]1` the melting point was 216 to 219 °C. `CN1CCN(c2cc3c(Br)cccc3c(=O)[nH]2)CC1CO` (stereo unspecified) gave a melting point of 200 to 202 °C. `O=C(O)c1ccc(-c2ccc(I)cc2)cc1` showed a melting point of 303 to 305 °C. Work on `COC(=O)Cc1ccc(OC)c([N+](=O)[O-])c1` yielded a melting point of 101 to 102 °C. For `CCCCc1nc(SC)c(C(=O)OCC)n1Cc1ccc(-c2nc3ccccn3c2C#N)cc1`, the melting point was 168 °C. Compound `CCc1cc(Nc2ccc(Sc3ccc(O)cc3)cc2)nc(N)n1` has a melting point of 181 to 184 °C. With `CC(CCCC(C)C1CCC2C3CC=C4CC(O)CCC4(C)C3CCC12C)CO[Si](C)(C)C(C)(C)C` (stereo unspecified) the melting point was 93.5 °C. Compound `CCC(=O)C1=C(O)CC(c2cc3c(cc2[N+](=O)[O-])OCO3)CC1=O` (stereo unspecified) has a melting point of 139 °C. Compound `CC(C)C(C(=O)O)N1CCCNC1=O` (stereo unspecified) has a melting point of 176 to 177 °C. Work on `O=C(O)C1CCc2c(c3ccccc3n2C(=O)c2cccc(Br)c2)C1` (stereo unspecified) yielded a melting point of 185 to 186 °C. In the case of `Cn1c(Cc2ccccc2)noc1=O`, the melting point is reported as 105 to 107 °C. `COc1cc(C(=O)O)ccc1Cn1ccc2ccc(NC(=O)CC3CCCC3)cc21` gave a melting point of 259 to 260 °C. Compound `CC(CO)(Sc1cc2ccccc2[nH]1)c1ccccc1` (stereo unspecified) has a melting point of 126 to 127 °C. `Nc1ncc(Oc2ccc(Cl)cc2)c(N2CCN(CCO)CC2)n1` showed a melting point of 121 to 123 °C. With `CNC(=O)C(=NOC)c1ccccc1COc1ncc(C)cc1Br` the melting point was 104 to 105 °C. In the case of `CCCC=Cc1c(C(C)C)nc(C(C)C)c(C(=O)OCC)c1-c1ccc(-c2ccccc2)cc1`, the melting point is reported as 104 to 106 °C. In the case of `Oc1ccc(SCCCN2CCOCC2)c(O)c1`, the melting point is reported as 99 °C. Work on `CC(=O)C(=O)N1CCC[C@H]1C(=O)O` yielded a melting point of 88 to 89 °C. `C=CCOC(=O)c1ccc(NC(=O)C(=NO)c2ccc3c(c2)C(C)(C)CCC3(C)C)cc1O` gave a melting point of 108 to 109 °C. `COc1ccc(-c2nnc(Nc3ccc(Cl)c(Cl)c3)s2)cc1OCc1ccccc1` showed a melting point of 223 to 224 °C. Work on `CCN1CCOc2cc(Nc3ncc(Cl)c(Nc4ccccc4C(=O)NC)n3)ccc2C1=O` yielded a melting point of 215 to 220 °C. With `NC(=O)c1cc(OCCNCC(O)c2ccc(OCc3ccccc3)cc2)ccc1O` (stereo unspecified) the melting point was 160 to 162 °C. With `CC1(c2ccccc2)Cc2cc(CC(=O)O)c(Cl)c(Cl)c2C1=O` (stereo unspecified) the melting point was 133 to 135 °C. For `COc1ccc([C@@H]2Sc3cc(Oc4ccc(F)cc4)ccc3N(CCN(C)C)C(=O)[C@@H]2OC(C)=O)cc1F`, the melting point was 128 to 132 °C. In the case of `Cc1c(SCCCSc2ccc3ncc([N+](=O)[O-])n3n2)ccnc1CSc1ncccn1`, the melting point is reported as 143 to 147 °C. For `Cc1c(O)cc2c(c1C)CCC2(C)C`, the melting point was 117 to 118 °C.
